Marks after values point to notes of the source that are not given here.
Legend:
[1] = target: monooxygenase component of styrene monooxygenase (StyA) (Pseudomonas sp, UniProt O50214); assay: [Cp*Rh(bpy)(H2O)]2+ driven, StyA-catalyzed epoxidation / sulfoxidation; format: biochemical
Procedure: In a typical experimental setup 1 ml total volume was placed in an Eppendorf cup in a Thermomixer. The temperature was set to 37° C. and the reaction mixture was shaken thoroughly to ensure O2 intake.
Product formation was followed by reversed phase HPLC. The HPLC system (Merck) consisted of a D-7000 controller, L-7200 autosampler, L-7400 UV detector, L-7100 liquid chromatography pump and was fitted with a CC250/4 Nucleosil 100-5 C18 HD column. Samples were eluted under isocratic conditions using 60% acetonitrile and 40% water at a flow rate of 1 ml×min^−1. The elution pattern was monitored at 210 nm.
0.2 mM [Cp*Rh(bpy)(H2O)]^2+, 0.05 mM FAD, 0.005 mM FMN, 2 mM styrene, 280 U catalase, and 1.16 μM StyA in 50 mM potassium phosphate buffer with 150 mM sodium formate were incubated at 37° C. and agitation at 1500 rpm. At intervals, reactions were stopped by addition of one equivalent volume of cold acetonitrile. After centrifugation (15 min at 4° C. and 23000×g the upper phase was analyzed by reverse phase HPLC. Concentrations were corrected according to the phase ratio after centrifugation. Results from this experiment are given in FIG. 10 and Table 3.
0.2 mM [Cp*Rh(bpy)(H2O)]^2+, 0.02 mM FAD, 2 mM substrate, 200 U catalase, and 1.47 μM StyA in 50 mM potassium phosphate buffer with 150 mM sodium formate were incubated at 37° C. and agitation at 1500 rpm.
Styrene oxide was analyzed using a CC200/4 Nucleodex α-PM (Machery-Nagel). As eluent 60% methanol and 40% 6.2 mM TEAA in water was used at a flow rate of 0.7 ml×min^−1. 1,2-Dihydronaphthalene oxide, trans-β-Methylstyrene oxide, indene oxide, and methyl phenyl sulfoxide were extracted from the reaction buffer with one aliquot hexane und analyzed unsing normal phase HPLC with a CHIRACEL OB—H column and hexane:isopropanol 95:5 (9:1 for methyl phenyl sulfoxide) at a flow rate of 0.5 ml*min^−1 as mobile phase. As reference either authentical samples of racemic epoxides were used. (Table 4). […]

[2] = test system: several dehydrogenases (HLADH, TBADH, etc.); settings: previously reported [13]; cited from earlier work
[3] = test system: 2-hydroxybiphenyl-3-monooxygenase (HbpA, E.C. 1.14.13.44); assay: Residual HbpA activity while incubation with [Cp*Rh(bpy)(H2O)]2+; format: biochemical
Procedure: HbpA-activities were determined by UV-spectroscopy according to literature methods by supplementing the experiment buffer with 0.1 mM NADH and observation of NADH-depletion at 340 nm for 1 minute, afterwards 2 mM of 2-hydroxybiphenyl were added and NADH depletion was measured for 1 minute. HbpA activity was determined as difference of both rates.
In a first experiment 0.11 U*ml^−1 HbpA of a partially enriched crude extract from recombinant E. coli overexpressing HbpA was incubated at 30° C. with 0, 0.02, 0.04, and 0.1 mM [Cp*Rh(bpy)(H2O)]^2+. In a second experiment c[Cp*Rh(bpy)(H2O)]^2+) was maintained at 0.02 mM whereas the HbpA content varied form 0.22 U*ml^−1 to 1.52 U*ml^−1.

Cytochrome C (cytC) = target: T1, Cytochrome C (cytC) (Equus caballus, UniProt P00004); assay: [Cp*Rh(bpy)H]+ catalyzed, formate driven reduction of Cytochrome C (absorption at 550 nm); format: biochemical, horse; settings: for TF ([Cp*Rh(bpy)(H2O)]2+) / dc(CytC)red/dt: c(CytC) 31.2 μM, c(NaHCO2) 150 mM
T1 construct: cytC- (from horse heart, Fluka, Buchs Switzerland); purchased Fluka, Buchs Switzerland; host or cells: horse heart
Procedure: In a typical experiment potassium phosphate buffer (50 mM, pH 7.0, c(NaHCO2)=150 mM) is supplemented with cytC- (from horse heart, Fluka, Buchs Switzerland) and [Cp*Rh(bpy)(H2O)]^2+-stocksolutions to 1 ml final volume in a quartz kuvette and placed into a thermostatted (T=30° C.) UV-spectrophotometer (UNICAM). After addition of the components, the absorption at λ=550 nm is followed. Concentrations of reduced CytC were determined after background correction according to the law of Lamber-Beer utilizing a molar extinction coefficient for reduced CytC of […].
In another typical experiment, the reaction temperature was varied between 20 and 35° C.
To exclude stoichiometric interaction of [Cp*Rh(bpy)(H2O)]^2+ with cytC, in another experiment low c([Cp*Rh(bpy)(H2O)]^2+) were applied. In 50 ml degassed potassium phosphate buffer (50 mM, pH 7.0, c(NaHCO2)=150 mM) 10 μM ([Cp*Rh(bpy)(H2O)]^2+) were incubated with 80 μM cytC (FIG. 9).

[4] = FIG. 10: 37 °C, 0.2 mM [Cp*Rh(bpy)(H2O)]2+, 0.05 mM FAD, 2 mM styrene, 1.16 μM StyA
[5] = [Cp*Rh(bpy)] 0.02 mM, [HbpA] 0.22 U/ml
[6] = [Cp*Rh(bpy)] 0.02 mM, [HbpA] 0.44 U/ml
[7] = [Cp*Rh(bpy)] 0.02 mM, [HbpA] 1.52 U/ml
[8] = T 20 °C, c([Cp*Rh(bpy)(H2O)]2+) 100 μM
[9] = T 30 °C, c([Cp*Rh(bpy)(H2O)]2+) 100 μM
[10] = T 35 °C, c([Cp*Rh(bpy)(H2O)]2+) 50 μM

Chain of monooxygenase component of styrene monooxygenase (StyA) (O50214 whole entry): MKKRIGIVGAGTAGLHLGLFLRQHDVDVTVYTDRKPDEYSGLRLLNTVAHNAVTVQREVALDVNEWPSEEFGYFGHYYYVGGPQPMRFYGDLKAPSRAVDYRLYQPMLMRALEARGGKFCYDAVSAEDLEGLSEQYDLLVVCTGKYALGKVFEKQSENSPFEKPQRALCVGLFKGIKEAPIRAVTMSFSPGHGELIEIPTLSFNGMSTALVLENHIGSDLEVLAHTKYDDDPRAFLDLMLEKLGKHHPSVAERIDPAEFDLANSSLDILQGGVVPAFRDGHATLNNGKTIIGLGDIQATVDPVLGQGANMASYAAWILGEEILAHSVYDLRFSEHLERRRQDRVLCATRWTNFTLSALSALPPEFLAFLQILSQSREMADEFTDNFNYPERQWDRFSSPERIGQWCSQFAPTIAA
T1 sequence (P00004 whole entry): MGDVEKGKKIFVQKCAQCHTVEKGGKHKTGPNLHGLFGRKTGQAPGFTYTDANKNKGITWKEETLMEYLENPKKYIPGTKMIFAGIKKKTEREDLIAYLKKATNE

Cc1c(C)c(C)[c-](C)c1C.O.[Rh+3].c1ccc(-c2ccccn2)nc1 [[Cp*Rh(bpy)(H2O)]^2+]
[Cp*Rh(bpy)(H2O)]2+ performance TF [1, 4]: 11.3 h⁻¹
[Cp*Rh(bpy)(H2O)]2+ performance TTN [1, 4]: 5.3
relative activity ([1]; calculated on FADH2 generation rate determined in the absence of StyA, FIG. 10 conditions): 16.1^c %
influence on the activity of several dehydrogenases [2]: no influence on the activity
effect of incubation on HbpA enzymatic activity [3]: complete loss of enzymatic activity
HbpA activity at t = 60 min [3, 5]: 16%
t25% [3, 5]: 39 min
HbpA activity at t = 60 min [3, 6]: 42%
t25% [3, 6]: 173 min
HbpA activity at t = 60 min [3, 7]: 68%
t25% [3, 7]: >1260 min
t25% ([3]; [Hbpa] 0.11 U/ml, [Cp*Rh(bpy)] 0.02 mM, 30 °C): 70 min
t25% ([3]; [Hbpa] 0.11 U/ml, [Cp*Rh(bpy)] 0.04 mM, 30 °C): 12 min
t25% ([3]; [Hbpa] 0.11 U/ml, [Cp*Rh(bpy)] 0.1 mM, 30 °C): <5 min
total turnover number (Cytochrome C (cytC); FIG. 9: 10 μM [Cp*Rh(bpy)(H2O)]2+, 80 μM cytC, 150 mM NaHCO2, 30 °C, degassed buffer, not optimized): 6
TF ([Cp*Rh(bpy)(H2O)]2+) (Cytochrome C (cytC); [8]): 4 h⁻¹
dc(CytC)red/dt (Cytochrome C (cytC); [8]): 0.4 mM * h^−
TF ([Cp*Rh(bpy)(H2O)]2+) (Cytochrome C (cytC); [9]): 21 h⁻¹
dc(CytC)red/dt (Cytochrome C (cytC); [9]): 2.1 mM * h^−
TF ([Cp*Rh(bpy)(H2O)]2+) (Cytochrome C (cytC); [10]): 32 h⁻¹
dc(CytC)red/dt (Cytochrome C (cytC); [10]): 1.6 mM * h^−
Turnover frequencies as CytC reduction catalyst (Cytochrome C (cytC); depend on the reaction temperature (20-35 °C)): 4-32 turnovers per hour
